Data published in PubChem BioAssay AID248 (DTP/NCI, 2004).
Several values for one entry are separate records, joined by “and”; a condition that tells them apart may be missing. Equal values may be shown once. Toxic doses and inconclusive results are not listed.

Test system: L1210 leukemia ip in BDF1 mice, survival T/C
Assay: NCI In Vivo Anticancer Drug Screen. Data for tumor model L1210 Leukemia (intraperitoneal) in B6D2F1 (BDF1) mice
Settings: endpoint: mean survival time, higher = longer survival
Outline: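 Ratio derived from survival: compound-dosed mice over vehicle-dosed mice, all bearing a transplantable tumor.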

[1] = dose: 100.0 mg/kg/injection, schedule: Q04DX003 (ip), vehicle: Klucel (hydroxypropylcellulose) (HPC)
[2] = dose: 100.0 mg/kg/injection, schedule: Q01DX001 (ip), vehicle: carboxymethylcellulose (CMC)
[3] = dose: 100.0 mg/kg/injection, schedule: Q01DX001 (ip), vehicle: other
[4] = dose: 200.0 mg/kg/injection, schedule: Q01DX001 (ip), vehicle: carboxymethylcellulose (CMC)
[5] = dose: 400.0 mg/kg/injection, schedule: Q01DX001 (ip), vehicle: carboxymethylcellulose (CMC)
[6] = dose: 25.0 mg/kg/injection, schedule: Q04DX003 (ip), vehicle: Klucel (hydroxypropylcellulose) (HPC)

With `CCCC(=O)NNC(=O)CCC` the T/C (dose: 100.0 mg/kg/injection, schedule: Q04DX003 (ip), vehicle: gum acacia) was 106 % of control, the T/C (dose: 200.0 mg/kg/injection, schedule: Q04DX003 (ip), vehicle: gum acacia) was 107 % of control and the T/C (dose: 400.0 mg/kg/injection, schedule: Q04DX003 (ip), vehicle: gum acacia) was 120 % of control.
In the case of `Cc1cc(C)c(-c2c(O)c(Br)c(C)c(O)c2Br)c(C)c1Br`, the T/C (dose: 75.0 mg/kg/injection, schedule: Q04DX003 (ip), vehicle: Klucel (hydroxypropylcellulose) (HPC)) is reported as 97 % of control, the T/C (dose: 150.0 mg/kg/injection, schedule: Q04DX003 (ip), vehicle: Klucel (hydroxypropylcellulose) (HPC)) is reported as 97 % of control and the T/C (dose: 300.0 mg/kg/injection, schedule: Q04DX003 (ip), vehicle: Klucel (hydroxypropylcellulose) (HPC)) is reported as 92 % of control.
In the case of `COc1cc2c(c3c1c(=O)c1ccccc1n3C)C=CC(C)(C)O2`, the T/C (dose: 6.0 mg/kg/injection, schedule: Q01DX001 (ip), vehicle: acetone) is reported as 101 % of control, the T/C (dose: 7.5 mg/kg/injection, schedule: Q01DX Z (ip), vehicle: other) is reported as 106 % of control and the T/C (dose: 12.0 mg/kg/injection, schedule: Q01DX001 (ip), vehicle: acetone) is reported as 97 % of control. For the same compound, the T/C (dose: 15.0 mg/kg/injection, schedule: Q01DX001 (ip), vehicle: other) was 97 % of control, the T/C (dose: 15.0 mg/kg/injection, schedule: Q01DX Z (ip), vehicle: other) was 114 % of control and the T/C (dose: 25.0 mg/kg/injection, schedule: Q01DX001 (ip), vehicle: acetone) was 105 % of control. For the same compound, the T/C (dose: 30.0 mg/kg/injection, schedule: Q01DX001 (ip), vehicle: other) was 94 % of control, the T/C (dose: 30.0 mg/kg/injection, schedule: Q01DX Z (ip), vehicle: other) was 122 % of control and the T/C (dose: 50.0 mg/kg/injection, schedule: Q01DX001 (ip), vehicle: acetone) was 118 % of control. The T/C (dose: 50.0 mg/kg/injection, schedule: Q01DX009 (ip), vehicle: acetone) was 103 % of control, the T/C (dose: 60.0 mg/kg/injection, schedule: Q01DX001 (ip), vehicle: other) was 105 % of control and the T/C (dose: 60.0 mg/kg/injection, schedule: Q01DX Z (ip), vehicle: other) was 103 % of control. For the same compound, the T/C (dose: 100.0 mg/kg/injection, schedule: Q01DX001 (ip), vehicle: acetone) was 114 % of control, the T/C (dose: 100.0 mg/kg/injection, schedule: Q01DX009 (ip), vehicle: acetone) was 91 % of control and the T/C (dose: 120.0 mg/kg/injection, schedule: Q01DX001 (ip), vehicle: other) was 105 % of control. For the same compound, the T/C (dose: 400.0 mg/kg/injection, schedule: Q01DX001 (ip), vehicle: acetone) was 116 % of control.
For `COc1ccccc1NC(=O)c1ccc(Cl)cc1`, the T/C (dose: 100.0 mg/kg/injection, schedule: Q01DX009 (ip), vehicle: Klucel (hydroxypropylcellulose) (HPC)) was 91 % of control, the T/C [1] was 105 % of control and the T/C (dose: 200.0 mg/kg/injection, schedule: Q01DX009 (ip), vehicle: Klucel (hydroxypropylcellulose) (HPC)) was 98 % of control. For the same compound, the T/C (dose: 200.0 mg/kg/injection, schedule: Q04DX003 (ip), vehicle: Klucel (hydroxypropylcellulose) (HPC)) was 108 % of control, the T/C (dose: 400.0 mg/kg/injection, schedule: Q01DX009 (ip), vehicle: Klucel (hydroxypropylcellulose) (HPC)) was 102 % of control and the T/C (dose: 400.0 mg/kg/injection, schedule: Q04DX003 (ip), vehicle: Klucel (hydroxypropylcellulose) (HPC)) was 97 % of control.
With `CSC1c2ccccc2-c2ccccc21` the T/C (dose: 44.0 mg/kg/injection, schedule: Q01DX001 (ip), vehicle: carboxymethylcellulose (CMC)) was 100 % of control, the T/C (dose: 44.0 mg/kg/injection, schedule: Q01DX001 (ip), vehicle: other) was 105 % of control and the T/C (dose: 66.0 mg/kg/injection, schedule: Q01DX001 (ip), vehicle: carboxymethylcellulose (CMC)) was 94 % of control and 105 % of control. The T/C (dose: 66.0 mg/kg/injection, schedule: Q01DX001 (ip), vehicle: other) was 97 % of control, the T/C [2] was 106 % of control and 111 % of control and the T/C [3] was 100 % of control. The T/C (dose: 150.0 mg/kg/injection, schedule: Q01DX001 (ip), vehicle: carboxymethylcellulose (CMC)) was 95 % of control and 100 % of control, the T/C (dose: 150.0 mg/kg/injection, schedule: Q01DX001 (ip), vehicle: other) was 97 % of control and the T/C [4] was 104 % of control. For the same compound, the T/C [5] was 107 % of control.
With `Cc1nc2c(Cl)cc(Cl)cc2c2c1-c1ccccc1C2=O` the T/C (dose: 100.0 mg/kg/injection, schedule: Q04DX003 (ip), vehicle: acetone) was 89 % of control, the T/C (dose: 200.0 mg/kg/injection, schedule: Q04DX003 (ip), vehicle: acetone) was 89 % of control and the T/C (dose: 400.0 mg/kg/injection, schedule: Q04DX003 (ip), vehicle: acetone) was 97 % of control.
`CNC(=O)C(=O)NCCCN1CC1` was tested, and the T/C (dose: 12.5 mg/kg/injection, schedule: Q04DX003 (ip), vehicle: Klucel (hydroxypropylcellulose) (HPC)) was 114 % of control and the T/C [6] was 104 % of control.
In the case of `COCCOC1=C(N2CC2)C(=O)C(OCCOC)=C(N2CC2)C1=O`, the T/C (dose: 0.09 mg/kg/injection, schedule: Q01DX009 (ip), vehicle: saline) is reported as 96 % of control, the T/C (dose: 0.17 mg/kg/injection, schedule: Q01DX009 (ip), vehicle: saline) is reported as 106 % of control and the T/C (dose: 0.33 mg/kg/injection, schedule: Q01DX009 (ip), vehicle: saline) is reported as 153 % of control. The T/C (dose: 0.66 mg/kg/injection, schedule: Q01DX009 (ip), vehicle: saline) was 183 % of control, the T/C (dose: 1.0 mg/kg/injection, schedule: Q01DX Z (ip), vehicle: saline) was 117 % of control and the T/C (dose: 1.25 mg/kg/injection, schedule: Q01DX001 (ip), vehicle: saline) was 112 % of control. The T/C (dose: 1.32 mg/kg/injection, schedule: Q01DX009 (ip), vehicle: saline) was 150 % of control, the T/C (dose: 2.0 mg/kg/injection, schedule: Q01DX Z (ip), vehicle: saline) was 150 % of control and the T/C (dose: 2.27 mg/kg/injection, schedule: Q01DX009 (ip), vehicle: saline) was 153 % of control. The T/C (dose: 3.0 mg/kg/injection, schedule: Q01DX001 (ip), vehicle: saline) was 110 % of control, the T/C (dose: 3.78 mg/kg/injection, schedule: Q01DX009 (ip), vehicle: saline) was 195 % of control and the T/C (dose: 4.0 mg/kg/injection, schedule: Q01DX Z (ip), vehicle: saline) was 150 % of control. For the same compound, the T/C (dose: 5.55 mg/kg/injection, schedule: Q01DX001 (ip), vehicle: saline) was 106 % of control, the T/C (dose: 6.0 mg/kg/injection, schedule: Q01DX001 (ip), vehicle: saline) was 119 % of control and the T/C (dose: 6.3 mg/kg/injection, schedule: Q01DX009 (ip), vehicle: saline) was 185 % of control. For the same compound, the T/C (dose: 8.0 mg/kg/injection, schedule: Q01DX Z (ip), vehicle: saline) was 91 % of control and the T/C (dose: 10.0 mg/kg/injection, schedule: Q01DX001 (ip), vehicle: saline) was 150 % of control and 176 % of control.
`CCCCCCCCCCC(=O)[O][Hg][c]1ccccc1` was tested, and the T/C (dose: 9.38 mg/kg/injection, schedule: Q01DX001 (ip), vehicle: saline) was 98 % of control and the T/C (dose: 18.75 mg/kg/injection, schedule: Q01DX001 (ip), vehicle: saline) was 93 % of control.
`CCCC(O)(CC)CCC` was tested, and the T/C (dose: 100.0 mg/kg/injection, schedule: Q04DX003 (ip), vehicle: saline with Tween-80) was 100 % of control and the T/C (dose: 200.0 mg/kg/injection, schedule: Q04DX003 (ip), vehicle: saline with Tween-80) was 100 % of control.
`O=C1NC(=O)N(Cc2ccccc2)C(=O)C1Cc1ccccc1` (stereo unspecified) was tested, and the T/C [2] was 97 % of control, the T/C [4] was 95 % of control and the T/C [5] was 103 % of control.
For `O=C1CCN(C2CC(O)C(CO)C2)C(=O)N1` (stereo unspecified), the T/C (dose: 100.0 mg/kg/injection, schedule: Q01DX001 (ip), vehicle: saline) was 101 % of control, the T/C (dose: 200.0 mg/kg/injection, schedule: Q01DX001 (ip), vehicle: saline) was 95 % of control and the T/C (dose: 400.0 mg/kg/injection, schedule: Q01DX001 (ip), vehicle: saline) was 101 % of control.
For `c1ccc2c(c1)nnn1c3ccccc3nc21`, the T/C [6] was 102 % of control, the T/C (dose: 50.0 mg/kg/injection, schedule: Q04DX003 (ip), vehicle: Klucel (hydroxypropylcellulose) (HPC)) was 94 % of control and the T/C [3] was 97 % of control. For the same compound, the T/C (dose: 100.0 mg/kg/injection, schedule: Q01DX009 (ip), vehicle: other) was 101 % of control, the T/C [1] was 104 % of control and the T/C (dose: 200.0 mg/kg/injection, schedule: Q01DX001 (ip), vehicle: other) was 108 % of control and 92 % of control. The T/C (dose: 200.0 mg/kg/injection, schedule: Q01DX009 (ip), vehicle: other) was 86 % of control, the T/C (dose: 400.0 mg/kg/injection, schedule: Q01DX001 (ip), vehicle: other) was 95 % of control and 92 % of control and the T/C (dose: 400.0 mg/kg/injection, schedule: Q01DX009 (ip), vehicle: other) was 90 % of control.
`Cc1cccc(C(=O)OCc2ccccc2CN2CCCCC2C)c1` (stereo unspecified) was tested, and the T/C (dose: 100.0 mg/kg/injection, schedule: Q01DX001 (ip), vehicle: Klucel (hydroxypropylcellulose) (HPC)) was 93 % of control and the T/C (dose: 200.0 mg/kg/injection, schedule: Q01DX001 (ip), vehicle: Klucel (hydroxypropylcellulose) (HPC)) was 93 % of control.
